From patent US20220332764A1, “T CELL EPITOPES OF HCMV AND USES OF THEREOF” (EBERHARD KARLS UNIVERSITÄT TÜBINGEN, priority 2019, published 2022)

Tested on: PBMCs of healthy HCMV-seropositive donors
Assay: IFNγ ELISpot after 12 day stimulation (memory T-cell response)
Assay type: cell-based, human
Settings: for % Positive donors (after 12 days of stimulation): IFNγ ELISpot, HLA-matched seropositive donors; for Positive donors as tested: positive / tested HLA-matched seropositive donors, positive: >10 spots/well and at least 3-fold negative control
Excerpt: PHA was used as positive control.

Sequence | % Positive donors (after 12 days of stimulation) | Positive donors as tested
AEPNFPKNVW (listed as Human cytomegalovirus) [SEQ ID NO: 46] | 14.3% | 2/14
ALFNQLVFTA (listed as Human cytomegalovirus) [SEQ ID NO: 16] | 13.3% | 2/15
ALLGRLYFI (listed as Human cytomegalovirus) [SEQ ID NO: 19] | 6.7% | 1/15
ALSPSTSKV (listed as Human cytomegalovirus) [SEQ ID NO: 9] | 23.5% | 4/17
ALYPEYIYTV (listed as Human cytomegalovirus) [SEQ ID NO: 14] | 16.7% | 3/18
APFGRVSV (listed as Human cytomegalovirus) [SEQ ID NO: 35] | 20.0% | 3/15
APNYRQVEL (listed as Human cytomegalovirus) [SEQ ID NO: 37] | 16.7% | 2/12
APYLRDTL (listed as Human cytomegalovirus) [SEQ ID NO: 39] | 5.3% | 1/19
DLDFGDLLKY (listed as Human cytomegalovirus) [SEQ ID NO: 65] | 12.5% | 2/16
EEATALGREL (listed as Human cytomegalovirus) [SEQ ID NO: 47] | 10.0% | 1/10
EEQDYRALL (listed as Human cytomegalovirus) [SEQ ID NO: 44] | 33.3% | 4/12
FFPKLQGNY (listed as Human cytomegalovirus) [SEQ ID NO: 23] | 16.7% | 2/12
FISSKHTL (listed as Human cytomegalovirus) [SEQ ID NO: 84] | 21.4% | 3/14
FPAHDWPEV (listed as Human cytomegalovirus) [SEQ ID NO: 94] | 13.3% | 2/15
FPDATVPATV (listed as Human cytomegalovirus) [SEQ ID NO: 96] | 6.7% | 1/15
FTDNVRFSV (listed as Human cytomegalovirus) [SEQ ID NO: 17] | 7.8% | 1/13
FVEGPGFMRY (listed as Human cytomegalovirus) [SEQ ID NO: 56] | 35.7% | 5/14
GLDQYLESV (listed as Human cytomegalovirus) [SEQ ID NO: 18] | 7.8% | 1/13
GLLAHIPAL (listed as Human cytomegalovirus) [SEQ ID NO: 13] | – | 2/11
GLNERLLSV (listed as Human cytomegalovirus) [SEQ ID NO: 15] | 15.0% | 3/20
GSDALPAGLY (listed as Human cytomegalovirus) [SEQ ID NO: 60] | 18.8% | 3/16
GVSSVTLLK (listed as Human cytomegalovirus) [SEQ ID NO: 73] | 35.7% | 5/14
HLKLRPATF (listed as Human cytomegalovirus) [SEQ ID NO: 83] | 23.1% | 3/13
IAIPHFMVV (listed as Human cytomegalovirus) [SEQ ID NO: 91] | 33.3% | 5/15
